We go through eight molecules from patent publication US4576942A, “Anti-allergic and anti-inflammatory bi- and tri- cyclo-1,4-thiazine derivatives, composition, and method of use therefor” (USV Pharmaceutical Corp., priority 1984, dated 1986).

For test [1], the system named is leukotriene C4-induced contraction of guinea pig peripheral strips. Put plainly: SRS-A (slow-reacting substance of anaphylaxis) antagonists, leukotriene C4-induced contraction of guinea pig peripheral lung strips. Details: key to SRS-A degree of inhibitory activity: I: inactive; L: low activity; M: moderate activity; H: high activity. Conditions: for SRS-A degree of inhibitory activity: 0.2 nM leukotriene C4, class symbol in the SRS-A I50 column; for pIC50: Cavia porcellus, 0.2 nM leukotriene C4, 37° C., read-out: SRS-A I50 (concentration required for 50% inhibition of 0.2 nM leukotriene C4-induced contraction). It counts as cell-based. How it is done: Leukotrienes, the products of the 5-lipoxygenase pathway of arachidonic acid metabolism, are potent contractile agents with a variety of smooth muscle preparations. […] The following protocol describes an in vitro assay used to test compounds which specifically antagonize the actions of leukotrienes.
Peripheral strips of guinea pig lungs are prepared and hung in tissue baths (Metro # ME-5505, 10 ml) according to the published procedure (Proc. Nat'l Acad. Sci, U.S.A. Volume 77, pp. 4354-4358, 1980). The strips are thoroughly rinsed in Assay Buffer and then connected with surgical silk thread to the support rods from the tissue baths. The rods are adjusted in the baths and the strips connected to the pressure transducers (Grass FT 103 or Gould UC-3). The tissue baths are aerated with 95% oxygen-5% carbon dioxide and maintained at 37° C. The Assay Buffer has been made as follows: For each liter of buffer the following are added to approximately 800 ml of water distilled in glass--6.87 g. NaCl, 0.4 g. KCl, 2.1 g. NaHCO3, 0.14 g, NaH2 PO4.H2 O, 0.21 g. MgSO4.7H2 O, and 2.0 g. D-glucose. Then a solution of 0.368 g. CaCl2.2H2 O in 100 ml glass-distilled water is slowly added to the buffer. Sufficient water is added to adjust the volume to one liter, and the solution is aerated with 95% oxygen-5% carbon dioxide. Usually 10 liters of buffer are used for an experiment with 4 tissues.
After the tissues have been repeatedly washed and allowed to equilibrate in the tissue bath, they are challenged with 1 uM histamine. After maximum contractions have been obtained, the tissues are washed, and allowed to relax back to baseline tension. This histamine challenge procedure is repeated at least 1 to 2 more times to obtain a repeatable control response. The average response to 1 uM histamine for each tissue is used to normalize all other challenges.
Responses of each tissue to a pre-determined concentration of leukotriene are then obtained. Usually test compounds are examined initially at 30 uM on resting tension of the tissues without any added agonist or antagonist to determine if the compound has any possible intrinsic activity. The tissues are washed, and the test compound is added again. Leukotriene is added after the desired pre-incubation time. The intrinsic activity of the compounds, and their effect on leukotriene-induced contractions are then recorded.
The concentration required for 50% inhibition of 0.2 nM leukotriene C4 -induced contraction of guinea pig peripheral strips or degree of inhibitory activity for representative compounds of the present invention is shown in Table I denoted by SRS-A.

The subject of a further test is 5-lipoxygenase pathway. Put plainly: Inhibitors of the Lipoxygenase Pathway (LOX), [14C]-5-HETE formation in rat neutrophils. The conditions noted are these: for LOX degree of activity: class symbol in the LOX I50 column; for pIC50: Neutrophil. Details: key to LOX degree of activity: I: inactive; L: low activity; M: moderate activity; H: high activity. It counts as cell-based. Here is the method:
The following protocol describes an assay to detect inhibitors of the lipoxygenase pathway. Such inhibitors are believed to be capable of modulating the biosynthesis of the leukotrienes, a property believed to be useful in treating asthma and inflammatory disease states.
A suspension of rat neutrophils in buffer is incubated for 3 minutes at 30° C. with [^14 C]-arachidonic acid (AA) and Calcium Ionophore A23187. Citric Acid (2M) is used to quench the reaction. Following the addition of a trace amount of (^3 H)-5-HETE together with an excess of unlabeled 5-HETE to each tube, the mixture is extracted with chloroform/methanol. The organic layer is washed with dilute acid and an aliquot is transferred to glass tubes and dried. The residue is dissolved in a small volume of chloroform and an aliquot is spotted on silica gel TLC sheets, which are developed with an ethyl acetate/isoctane/water/acetic acid solvent system. The 5-HETE spots are visualized with iodine, cut out and placed in scintillation vials for counting. After adjusting for the extraction efficiency, the amount (pmole) of [^14 C]-5-HETE in each of the tubes is quantitated. The net pmoles of 5-HETE are obtained by substracting the pmoles of 5-HETE in the tubes containing buffer alone (blank) for the pmoles of 5-HETE in the tubes containing […]. The ability of the test compounds to modulate the activity of this enzyme is determined by a decrease or increase in the net amount of 5-HETE produced.

The subject of test [2] is SRS-A (slow reacting substances of anaphylaxis), anaphylactic bronchoconstriction in guinea pigs. Put plainly: in vivo modulators of SRS-A: Bronchial Anaphylaxis in Guinea Pigs with Enhanced Leukotrines (BAGEL). The conditions noted are these: 15 min before ovalbumin challenge. Details: species or system guinea pig; key: I: inactive; L: low activity; M: moderate activity; H: high activity. How it is done: Representative compounds of the present invention were also tested in the following in vivo model.
This test, known as the Bronchial Anaphylaxis in Guinea Pigs with Enhanced Leukotrines (BAGEL), is based on the procedure published in Agents and Actions, Vol. 11, pp. 396-401, 1981, and is performed with guinea pigs actively immunized (14 days) with ovalbumin (2.7 mg/kg, i.p.) and B.pertussis (5×10^9 organisms) as an adjuvant. Prior to challenge with antigen (ovalbumin), the animals are anesthetized and prepared for monitoring pulmonary dynamics by whole body plethysmography. They are treated with an H1 antihistamine (methapyrilene, 2 mg/kg, i.v.) and cyclooxygenase inhibitor (indomethacin; 20 mg/kg, i.p.) in order to enhance the SRS-A component of anaphylactic bronchoconstriction. Bronchoconstriction is quantified as the maximum increase in airway resistance following antigen challenge. The drug is administered either i.p. 10 minutes before challenge, or i.d. 15 minutes before challenge.

Test [3] relates to Human PMN (5-lipoxygenase pathway). Put plainly: LOX, Human PMN. Format: cell-based. Set-up: key to LOX degree of activity, Human PMN: I: inactive; L: low activity; M: moderate activity; H: high activity.
Setting [4] is: arachidonic acid + Ca ionophore A23187, 30° C., read-out: LOX I50 (concentration required for 50% inhibition of the 5-lipoxygenase pathway).

pIC50: −log10 of the molar value. Read-outs that look alike come from different tables or passages of the source.

As to `CCOC(=O)C=C1CSc2ccccc2N1`, in test [1], the “SRS-A degree of inhibitory activity” value is “M”. The “LOX degree of activity” value with 5-lipoxygenase pathway was “I”.
As for `O=C(C=C1CSc2ccccc2N1)Nc1ccccc1`, the pIC50 was 4.74 in test [1] and 5.80 in the test with 5-lipoxygenase pathway (setting [4]).
With `O=C(C=C1CSc2ccccc2N1)Nc1ccccc1Cl`, the “LOX degree of activity” value in the test with 5-lipoxygenase pathway is on record as “M”.
Consider `CCOC(=O)C(Cl)=C1CSc2ccccc2N1`, for which, in test [1], the “SRS-A degree of inhibitory activity” value is “M”. Further, the BAGEL activity result in test [2] (200 mg/kg i.d.) was “L”. The pIC50 in the test on 5-lipoxygenase pathway (setting [4]) is 5.77.
As to `CCOC(=O)C(Cl)=C1CSc2ncccc2N1`, the pIC50 was 4.70 in test [1]; 6.00 in test [3] (Homo sapiens, read-out: LOX I50, Human PMN); 5.92 in the test on 5-lipoxygenase pathway (setting [4]). For the same molecule, in test [2] (200 mg/kg i.d.), the BAGEL activity entry was “M-H”.
With `N#CC(C(N)=O)=C1CSc2ccccc2N1`, the pIC50 in test [1] is 4.60. In addition, the “LOX degree of activity” value in the test with 5-lipoxygenase pathway is “I”.
Take `CCOC(=O)C=C(C(=O)OCC)C(C(=O)OCC)=C1CSc2ccccc2N1`: the “SRS-A degree of inhibitory activity” value in test [1] was “I”. Also, the BAGEL activity result in test [2] (30 mg/kg i.d.) is “H”. Besides, the “LOX degree of activity, Human PMN” value in test [3] (Human PMN, 135 μM) is recorded as “L”. Further, the pIC50 in the test on 5-lipoxygenase pathway (cell prints 3μ .M, read-out: LOX I50, unit printed in the cell) is 5.52.
With `CCOC(=O)c1c2csc3ccccc3n-2c(=O)c1O`, in test [1], the “SRS-A degree of inhibitory activity” value was “I”. The pIC50 in the test on 5-lipoxygenase pathway (setting [4]) is 4.92.
